Measured values published in patent US20150231198A1 (priority 2014, published 2015).

Legend:
[1] = system: Karpas 299; assay: cells; assay type: cell-based; details: Homo sapiens, KARPAS-299, 48 h, read-out: IC50 (concentration that inhibits viability by 50%)
[2] = system: SUP-T1 cells; assay: Flow cytometry apoptosis (Annexin V-FITC/PI), SUP-T1; assay type: cell-based; details: 48 hours
[3] = water; cited from earlier work
[4] = system: Sup-T1; assay: cells; assay type: cell-based; details: Homo sapiens, SUP-T1, 48 h, read-out: IC50 (concentration that inhibits viability by 50%)
[5] = system: Jurkat; assay: cells; assay type: cell-based; details: Homo sapiens, 48 h, read-out: IC50 (concentration that inhibits viability by 50%)
[6] = system: protein, primarily albumin; details: cited from earlier work
[7] = in vivo; cited from earlier work
[8] = system: HH; assay: cells; assay type: cell-based
[9] = system: HD-MAR2; assay: cells; assay type: cell-based; details: 48 h, read-out: IC50 (concentration that inhibits viability by 50%)
[10] = after intravenous infusion; cited from earlier work
[11] = system: Karpas 299 cell line; assay: Flow cytometry apoptosis (Annexin V-FITC/PI), Karpas 299; assay type: cell-based
[12] = system: Primary GFP+ cells from the Itk-Syk transgenic mouse model; assay: Apoptosis and synergy in primary GFP+ cells from Itk-Syk transgenic mouse; assay type: cell-based; details: 48 hours

Compound	IC50 [1]	apoptosis induced, % cells ([2]; SUP-T1, bendamustine alone)	solubility [3]	IC50 [4]	IC50 [5]	drug bound to protein [6]	incidence of hair loss (alopecia) [7]	growth inhibition (sensitivity of cell line) ([8]; concentrations as high as 30 μM, 48 hours of exposure)	IC50 [9]	half-life (first phase of biphasic elimination) [10]	terminal half-life [10]	apoptotic cells ([11]; Karpas 299, bendamustine at 10 μM (IC50-60))	apoptosis induced, % of the cells ([12]; bendamustine alone)	apoptosis induced, % cells ([2]; SUP-T1, romidepsin alone)	IC50 ([8]; Homo sapiens, 48 h, read-out: IC50 (concentration that inhibits viability by 50%))	apoptosis induced, % of the cell population ([11]; Karpas 299, romidepsin alone at 1 nM)	apoptosis induced, % of the cells ([12]; romidepsin alone)
Cn1c(CCCC(=O)O)nc2cc(N(CCCl)CCCl)ccc21 [bendamustine]	32000 nM	50%	water soluble	8880 nM	17800 nM	More than 95%	low incidence	resistant	9330 nM	6 to 10 min	approximately 30 minutes	35%	72%	–	–	–	–
C/C=C1\NC(=O)[C@H]2CSSCC/C=C/[C@H](CC(=O)N[C@H](C(C)C)C(=O)N2)OC(=O)[C@H](C(C)C)NC1=O [romidepsin, (1S,4S,7Z,10S,16E,21R)-7-ethyl idene-4,21-bis(1-methylethyl)-2-oxa-12,13-dithia-5,8,20,23-tetrazabicyclo[8.7.6]tricos-16-ene-3,6,9,19,22-pentone]	0.56 nM	–	–	0.94 nM	0.46 nM	–	–	–	0.33 nM	–	–	–	–	31%	1.68 nM	up to 40%	60%
